Experimental data published in ChEMBL document CHEMBL5674850, “ASAP - Solubility” (2024).
In brackets after ≈: the same amount, converted by molar mass.

Assay: Kinetic solubility of compound by measuring concentration at pH 7.4 in saturated PBS buffer by UV LCMS/MS using calibration curves. The assay has been performed by Enamine biological services, Bienta Ltd.The protocol is publicly available: dx.doi.org/10.17504/protocols.io.j8nlk8y41l5r/v1
Type: physicochemical
Conditions: PBS buffer

solubility kinetic [µM] | SMILES
311 (≈ 119 µg/mL) | CC(C)NC(=O)[C@H](Nc1ccc2c(c1)CNC2)c1cc(Cl)cc2[nH]ncc12
335 (≈ 105 µg/mL) | O=C(Nc1ccc2c(c1)CNC2)c1cc(Cl)cc2c1CCC2
152 (≈ 44.6 µg/mL) | O=C1Cc2c(cccc2C(=O)Nc2ccc3c(c2)CNC3)N1
≤ 2 | O=C(Nc1ccc2c(c1)CNC2)c1cc(Br)cc2[nH]c(-c3ccccc3)nc12
35 (≈ 14.8 µg/mL) | O=C(Nc1cc(Cl)cc(C(=O)Nc2ccc3c(c2)CNC3)c1)OCc1ccccc1
392 (≈ 146 µg/mL) | Cn1ncc2c(C(=O)Nc3ccc4c(c3)CNC4)cc(Br)cc21
181 (≈ 58.6 µg/mL) | O=C(Nc1ccc2c(c1)CNC2)c1cc(Cl)cc2ccncc12
239 (≈ 83.3 µg/mL) | O=C(/C=C/c1ccccc1)C(=O)N1CCN(CCc2ccccc2)CC1
143 (≈ 84.2 µg/mL) | CCCC[C@@H](NC(=O)OC(C)(C)C)C(=O)N[C@@H](C(=O)NCc1ccc(CN)cc1)c1ccc(OCc2ccccc2)cc1
154 (≈ 70.8 µg/mL) | CC(C)NC(=O)[C@H](Nc1ccc2c(c1)CNC2)c1cc(Cl)cc2[nH]c(-c3ccccc3)nc12
50 (≈ 20.3 µg/mL) | NCc1cccc([C@@H]2C[C@H]2c2cc(Cl)cc(NC(=O)OCc3ccccc3)c2)c1
185 (≈ 59.6 µg/mL) | O=C(Nc1ccc2c(c1)CNC2)c1cc(F)cc(-c2cn[nH]c2)c1
126 (≈ 58.5 µg/mL) | O=C(Nc1cc(Cl)cc(C(=O)Nc2cccc(C3CCNCC3)c2)c1)OCc1ccccc1
184 (≈ 57.5 µg/mL) | O=C(Nc1ccc2c(c1)CNC2)c1cc(Cl)cc2cn[nH]c12
66 (≈ 26.9 µg/mL) | O=C(Nc1cc2c(c(-c3c[nH]c(=O)c(F)c3)c1)CNC2)c1cc(F)cc2[nH]ncc12
344 (≈ 158 µg/mL) | N#C[C@H](Nc1cccc(-c2nn[nH]n2)c1)c1cc(Cl)cc(NC(=O)OCc2ccccc2)c1
178 (≈ 76.9 µg/mL) | CNC(=O)[C@H](Nc1ccc2c(c1)CNC2)c1cc(Cl)cc2[nH]c(-c3ccccc3)nc12
297 (≈ 96.2 µg/mL) | N#C[C@H](Nc1ccc2c(c1)CNC2)c1cc(Cl)cc2[nH]ncc12
49 (≈ 23.3 µg/mL) | O=C(N[C@H]1[C@H]2CCCCC[C@H]2[C@H]1C(=O)Nc1cccc(C2CCNCC2)c1)OCc1ccccc1
17 (≈ 8.66 µg/mL) | NCc1cccc(NC(=O)C[C@@H](NC(=O)OCc2ccccc2)c2ccc(OCc3ccccc3)cc2)c1
23 (≈ 11.4 µg/mL) | NCc1cccc(NC(=O)[C@@H](NC(=O)OCc2ccccc2)c2ccc(OCc3ccccc3)cc2)c1
21 (≈ 12.4 µg/mL) | NCc1cccc(NC(=O)C[C@H](NC(=O)OCc2ccccc2)c2ccc(OCc3ccccc3)c(Br)c2)c1
360 (≈ 164 µg/mL) | O=C(O)COc1cccc(NC(=O)c2cc(Cl)cc(NC(=O)OCc3ccccc3)c2)c1

solubility kinetic [µM] | SMILES
375 (≈ 109 µg/mL) | NCc1cccc(NC(=O)c2cc(Cl)cc(CN)c2)c1
176 (≈ 58.5 µg/mL) | Cc1c(C(=O)Nc2cc(-c3cccnc3)ccn2)cc(C2CC2)n1C
397 (≈ 168 µg/mL) | O=C(O)c1cc(Cl)ccc1NS(=O)(=O)c1ccc(-c2ccccc2Cl)cc1
325 (≈ 125 µg/mL) | COc1cc(Cc2c(-c3ccc(F)cc3)noc2C)nc(N2CCNCC2)n1
332 (≈ 116 µg/mL) | NCc1cccc(NC(=O)c2cccn3cc(CN4CCCC4)nc23)c1
347 (≈ 133 µg/mL) | CNC(=O)[C@H](Nc1cccc(-c2nn[nH]n2)c1)c1cc(Cl)cc2[nH]ncc12
356 (≈ 150 µg/mL) | O=C(Nc1cc(Cl)cc(-c2ccc3[nH]c(C(=O)O)cc3c2)c1)OCc1ccccc1
131 (≈ 57.1 µg/mL) | O=C(O)Cn1ncc2cc(-c3cc(Cl)cc(NC(=O)OCc4ccccc4)c3)ccc21
392 (≈ 169 µg/mL) | CCOc1cccc(-c2ccc(S(=O)(=O)Nc3ccc(Cl)cc3C(=O)O)cc2)c1
78 (≈ 39.7 µg/mL) | NCc1cccc(CNC(=O)[C@@H](NC(=O)OCc2ccccc2)c2ccc(OCc3ccccc3)cc2)c1
88 (≈ 37.3 µg/mL) | NCCc1ccc(NC(=O)c2cc(Cl)cc(NC(=O)OCc3ccccc3)c2)cc1
52 (≈ 23.4 µg/mL) | NCc1cc(C(=O)O)cc([C@@H]2C[C@H]2c2cc(Cl)cc(NC(=O)OCc3ccccc3)c2)c1
191 (≈ 61.4 µg/mL) | N#Cc1cc2c(cc1NC(=O)c1cc(F)cc3[nH]ncc13)CNC2
26 (≈ 10.7 µg/mL) | O=C(Nc1cc(Cl)cc(C(=O)Nc2n[nH]c3c2CNC3)c1)OCc1ccccc1
356 (≈ 120 µg/mL) | C=CC[C@H]1NCc2cc(NC(=O)c3cc(F)cc4[nH]ncc34)ccc21
119 (≈ 41.4 µg/mL) | c1ccc2sc(C3CCN(Cc4c[nH]c5ccccc45)CC3)nc2c1
25 (≈ 11.3 µg/mL) | CNC(=O)c1cc(Cl)ccc1NS(=O)(=O)c1ccc(Oc2ccccc2Cl)cc1
335 (≈ 130 µg/mL) | CNC(=O)[C@H](Nc1cc(CN)cc(C(=O)O)c1)c1cc(Cl)cc(C2CC2)c1
4 (≈ 2.05 µg/mL) | CC(C)CNC(=O)c1cc(Cl)c(F)cc1NS(=O)(=O)c1ccc(Oc2ccccc2Cl)cc1
394 (≈ 170 µg/mL) | Cc1cc(OCc2ccccc2)ccc1NS(=O)(=O)c1ccc(Cl)cc1C(=O)O
65 (≈ 29.2 µg/mL) | O=C(Nc1cc(Cl)cc(C(=O)Nc2cccc(-c3nnn[nH]3)c2)c1)OCc1ccccc1
189 (≈ 63.6 µg/mL) | O=C(Nc1cc2c(cc1C1CC1)CNC2)c1cc(F)cc2[nH]ncc12
333 (≈ 164 µg/mL) | CNC(=O)[C@H](Nc1cc(Cl)cc(NC(=O)OCc2ccccc2)c1)c1cccc(-c2nn[nH]n2)c1

solubility kinetic [µM] | SMILES
135 (≈ 47.6 µg/mL) | OCC#C[C@H](Nc1ccc2c(c1)CNC2)c1cc(Cl)cc2[nH]ncc12
187 (≈ 55.4 µg/mL) | O=C(Nc1ccc2c(c1)CNC2)c1cc(F)cc2c1CCC2
89 (≈ 36.5 µg/mL) | NCc1cccc(NC(=O)c2cc(Cl)cc(NC(=O)OCc3ccccc3)c2)c1
7 (≈ 2.6 µg/mL) | CCc1cc(C(=O)Nc2cccc(CN)c2)sc1-c1ccc(Cl)cc1
14 (≈ 7.52 µg/mL) | O=C(NCC(F)(F)F)c1cc(Cl)c(F)cc1NS(=O)(=O)c1ccc(Oc2ccccc2Cl)cc1
60 (≈ 30.3 µg/mL) | CC[C@@H](Cc1nnn[nH]1)c1ccc(NC(=O)c2cc(Cl)cc(NC(=O)OCc3ccccc3)c2)cc1
56 (≈ 27.8 µg/mL) | NCc1cccc(NC(=O)CN(C(=O)OCc2ccccc2)c2ccc(OCc3ccccc3)cc2)c1
396 (≈ 181 µg/mL) | O=C(O)c1cc(Cl)c(F)cc1S(=O)(=O)Nc1ccc(Oc2ccccc2Cl)cc1
14 (≈ 6.94 µg/mL) | NCc1cccc(NC(=O)c2cc(OCc3ccccc3)ccc2CNC(=O)OCc2ccccc2)c1
8 (≈ 3.88 µg/mL) | Cc1cc(-c2ccc([C@@H](NC(=O)OCc3ccccc3)C(=O)Nc3cccc(CN)c3)cc2)cs1
180 (≈ 72.6 µg/mL) | COc1cc(-c2cc(NC(=O)c3cc(F)cc4[nH]ncc34)cc3c2CNC3)ccn1
332 (≈ 158 µg/mL) | C=CC[C@H](Nc1cccc(-c2nn[nH]n2)c1)c1cc(Cl)cc(NC(=O)OCc2ccccc2)c1
136 (≈ 39.9 µg/mL) | O=C1Cc2cc(C(=O)Nc3ccc4c(c3)CNC4)ccc2N1
49 (≈ 23 µg/mL) | CNC(=O)c1cc(Cl)c(F)cc1NS(=O)(=O)c1ccc(Oc2ccccc2Cl)cc1
112 (≈ 36.6 µg/mL) | N#C[C@H](Nc1cccc(C(=O)O)c1)c1cc(Cl)cc2[nH]ncc12
316 (≈ 97.4 µg/mL) | CC(C)c1nc2c(C(=O)Nc3cccc(CN)c3)cccc2[nH]1
47 (≈ 17.6 µg/mL) | O=C(Nc1cc2c(cc1Br)CNC2)c1cc(F)cc2[nH]ncc12
369 (≈ 162 µg/mL) | O=C(O)c1cc(Cl)ccc1NS(=O)(=O)c1ccc(Oc2ccccc2Cl)cc1
380 (≈ 192 µg/mL) | O=C(O)c1cc(Cl)ccc1S(=O)(=O)NC1CCN(c2nc(C3CC3)cc(C(F)(F)F)n2)CC1
352 (≈ 145 µg/mL) | CNC(=O)[C@H](Nc1cc(CN)cc(-c2nn[nH]n2)c1)c1cc(Cl)cc(C2CC2)c1
107 (≈ 49.7 µg/mL) | O=C(Nc1cc(Cl)cc(C(=O)Nc2cccc(-n3nn[nH]c3=O)c2)c1)OCc1ccccc1

Same assay, conditions: buffer

Solubility (mean) [µM] | SMILES
134 (≈ 61.6 µg/mL) | CC(C)NC(=O)[C@H](Nc1ccc2c(c1)CNC2)c1cc(Cl)cc2[nH]c(-c3ccccc3)nc12
184 (≈ 59.3 µg/mL) | O=C(Nc1ccc2c(c1)CNC2)c1cc(F)cc(-c2cn[nH]c2)c1
193 (≈ 62 µg/mL) | N#Cc1cc2c(cc1NC(=O)c1cc(F)cc3[nH]ncc13)CNC2
